According to patent publication US20260035369A1, “VINCAMINE DERIVATIVES, PREPARATION METHOD THEREFOR, AND USE THEREOF” (SOUTHWEST UNIVERSITY, priority 2023, published 2026):

System: bEnd.3 cells
Assay: Cellular ROS levels (DCFH-DA) by single cell analyzer
Type: cell-based
Conditions: 2 hours, FIG. 10
Protocol: (10) The effect of lipid nanoparticles formed from the vincamine derivative (compound 2 (A5-B2-C6) as an example) on cellular ROS levels was detected using a single cell analyzer:
To detect cellular oxidative stress and intracellular reactive oxygen species (ROS) levels, a dichlorodihydrofluorescein diacetate (DCFH-DA) reactive oxygen species assay kit was used to detect the green fluorescence signal of ROS. bEnd.3 cells were seeded in cell culture dishes (50000 cells per dish) and cultured in 1 mL of culture medium for 12 hours. The culture medium in the wells was discarded and replaced with fresh complete medium. Lipid nanoparticles formed from the vincamine derivative (compound 2 (A5-B2-C6)) were added to the cells, and the cells were incubated in the dark at 37° C. in a 5% CO2 atmosphere for 2 hours. The cells in each group were incubated in PBS buffer containing […] DCFH-DA at 37° C. for 30 min. The cells were then washed three times in PBS buffer solution containing 0.1% BSA and fixed on glass slides. ROS levels were detected at the single-cell level using a fiber optic probe with a tip of approximately […]. The tip was inserted into the cells fixed in PBS, and photon counts were continuously detected and calculated within 150 s.

SMILES	cellular ROS levels
CCCCCCCC/C=C\CCCCCCCC(=O)OCC(C[N+](C)(C)C)OC(=O)CCCCCCC/C=C\CCCCCCCC (centres unmarked) [DOTAP]	high ROS levels
CCCCC/C=C\C/C=C\CCCCCCCCC(CCCCCCCC/C=C\C/C=C\CCCCC)OC(=O)CCCN(C)C [Dlin-MC3-DMA]	high ROS levels
